From patent publication US8273340B2, “Methods and compositions for attracting or repelling cockroaches” (The United States of America, as represented by the …, priority 2008, dated 2012) come the findings set out here.

The structures appear in SMILES notation. Marks after values point to notes of the source that are not given here.

Series [1] deals with Male cockroaches (Blattela germanica). Kind of series: Y-tube olfactometer bioassay, test compound in mineral oil on filter paper. Format: in vivo. To be noted: 0.5% w/v solution in mineral oil; mean of 3 replicates; 65% or more = significantly attractive (*), 35% or less = significantly repellent (**). From the text:
The German cockroach (Blattela germanica) is one of the most difficult cockroach species to control in homes and was used to illustrate the invention. […] Since the cockroaches never contact the test sample, their response is strictly to the molecules in the air stream.
(§1) Olfactometer Bioassay: The Y-tube bioassay apparatus was similar to that described by Vander Meer et al. (J. Chem. Ecol., 14: 825-838 (1988)). Compressed air (breathing-air quality) was passed into the two choice arms at 0.2 l/min for a total flow of 0.4 l/min. Flow rates were adjusted and controlled by two flow meters (Omega Engineering, Inc.). All tubing carrying the air was either copper or Teflon. Prior to evaluating treatment samples, a positive standard was put through the bioassay procedure. […] Test samples (10.0 μl) and the solvent blank (mineral oil, 10.0 μl) were applied to filter paper strips (0.3×1.0 cm, Whatman No. 1) and then each was placed into one of the two choice arms. Male cockroaches (Blattela germanica) were prepared for their introduction into the olfactometer by placing them in a Teflon tube (3 cm×0.8 cm) that had one end blocked with a piece of copper mesh screen. The open end of tube was closed with a lightly attached piece of tape. The cockroaches were introduced individually by removing the tape and quickly inserting the Teflon tube into the entrance arm of the olfactometer. […] The initial choice of the cockroach was recorded. The cockroach was removed and the process was repeated 10 times with the same test and blank samples. The 10 choices usually required less than 5 minutes to complete. After each set of 10 cockroaches had made their choice, the olfactometer was rinsed with acetone, dried, and reassembled for the next test. Each sample was retested with the same cockroaches, but with the sample and control in reverse positions. The sum of the results from the two tests represented one replicate. This procedure minimized bias inherent in the apparatus. A null hypothesis of equal numbers of cockroaches in each arm was tested with chi-square analysis. […] Results in-between were neutral.
The diameter of the Y part of the olfactometer provided a close fit for the cockroach, thus keeping it in the center of the walkway.

For series [2] the test system is unchanged. Kind of series: Y-tube olfactometer bioassay of controlled release pellets aged in a fume hood. Format: in vivo. To be noted: for Percent Response: mean of 3 replicates; for activity in the olfactometer (in words): charcoal as the absorbent, after one hour in the fume hood.
Text: as §1, with “procedure. The standard was initially an attractive food material (grape flavoring concentrate used at 0.33%) and later 0.5% (w/v) methyl tiglate, one of the compounds of the present invention, in white, light mineral oil (Aldrich Chemical Co.).” for “procedure.”
Controlled Release Formulations: Four esters found to be significant cockroach attractants were selected for evaluation in controlled release formulations-developed by BioGuard, Inc. Six controlled release formulations from BioGuard were evaluated in the olfactometer. The attractants were methyl tiglate, butyl hexanoate, propyl propanoate, and butyl heptanoate. The attractants were absorbed to either coconut shell charcoal pellets or potassium substituted crystalline zeolite pellets, and then coated with water soluble methylcellulose. The powdered methyl cellulose was dissolved in 80° C. water until saturation, cooled to approx 25° C., the pellets immersed into the solution for a 30 sec, and removed and rapidly air dried with 30° C. pre-dried air. The end products were pellets (charcoal=2 mm×4 mm dia.; molecular sieve=4 mm×1.5 mm dia.). […] A single pellet was used in place of the filter paper described above. The control side was left blank.

Series [3] concerns German roaches (B. germanica). The series can be described thus: Two-harborage arena bioassay of sustained release polymer formulations. Format: in vivo. To be noted: formulated with Santoprene; counted after 24 hours. The source says: Evaluation of sustained release formulations: Three cockroach attractants (methyl tiglate, butyl heptanoate, and propyl proprionate) were formulated in one or more polymer formulations (Urethane, Pellethane, Santoprene, and/or Polyethylene) as indicated in Table 4.A sweater box (1.5×2.0×0.5 ft) provided the test arena. The sides of the arena were coated with a blend of mineral oil and Vaseline petroleum jelly. The tops of two 8 oz paper ice cream cups were tapped to the arena floor with masking tape and, prior to the addition of the test cockroaches, inverted cups without holes were fixed to the tapped lids. Twenty-five laboratory reared late stage nymphs or adult male German roaches (B. germanica), starved for 72 hrs, were added to the arena and allowed to calm down (ca. 1 hour). The starting inverted ice cream cups were carefully removed and each ice cream cup top was then supplied with a water tube (1.5 ml scintillation vial with water and stoppered with cotton), one lab chew food pellet, and either a test attractant polymer formulation or the corresponding polymer blank control. […] The cups were oriented so that the holes were facing each other. The number of roaches that sought harborage in the cups was counted after 24 hours by plugging the entrance holes with cotton, the roaches inside euthanized, and the numbers in each cup counted.

Series [4] is described as follows: Release rate of attractants from sustained release delivery systems. It is filed as physicochemical. The source says:
Several secondary release rate control systems were developed. The first was a sachet that can contain the above polymer releasing system. This sachet can be either polyvinylidine chloride (PvdC) barrier film (e.g., Saranex™) enclosed in a thermally sealed metalized polyethylene container to eliminate release of active compounds, or a metalized polyethylene sachet with a removable seal that covers a vapor diffusion controlling orifice which when removed begins the release process from the internal polymer/carrier, or metalized polyethylene sachet which contains a small vial with a vapor controlling orifice. In the case of the Saranex™ sachet, the actual porosity of the Saranex™ control release is based on type of PVdC and thickness of the film. In the case of the metalized polyethylene sachet and internal polymer/carrier, a specific orifice size controlled the rate of diffusion of the active from the device, as shown in FIG. 4. An additional means of containing and reducing the release of the liquid active compounds and providing a solid support for use in the above delivery system involved sorbing the active compounds into an inert absorbent such as Membrana GmbH's expanded microporous polyolefin Accurel® MP100 which are granular or pelletized polyethylenes that have 10-50 μm air pockets throughout and can contain up to 90% of their volume in active compounds . MP100 was easily loaded with 80% by wt active ingredient due to its porosity. […] Thus, placement into the metalized polyethylene sachet with its diffusion regulating orifice was required.
Active compounds (1 gm active in Accurel® MP100) were sealed within the metalized polyethylene sachet, and a 0.5 mm hole placed into the film, and sealed until use with a metalized tape. Release rates for propyl propanoate, methyl tiglate, and butyl hexanoate were calculated at 15.5, 11.4, and 4.8 mg/day, respectively. Longevity of this system was calculated to be 64, 87, and 208 days, respectively.
Release rates for the thermoset urethane (Flexane® 80P) and synthetic rubbers systems ranged from 0.055 to 0.2 mg/cm^2/day, depending on durometer/hardness that is a measure of polymer crosslinking. Best results were obtained at durometer/hardness levels above D30. Release rates for the Saranex system without the release control provided by the metalized polyethylene and diffusion control orifice were 187, 236, and 7 mg/day for propyl propanoate, methyl tiglate, and butyl hexanoate, respectively.

A further series has as its system cockroach. Kind of series: Bioassays for cockroach attraction of attractants sorbed into thermoplastic polymers. Format: in vivo. The source says: To alleviate the reactivity with the carrier polymers, we attempted to load active compounds into a series of thermoplastic polymers including urethanes and synthetic rubbers, based on the behavior of the active compounds as plasticizers. […] Propyl propanoate, methyl hexanoate, and methyl tiglate were loaded into a series of thermoplastic granulated feed materials, including 4-(1,1,3,3-tetramethylbutyl) with ethylene-5-ethylidenebicyclo[2.2.1]hept-2-ene-propene thermoplastic synthetic rubber (Santopren™ 203-40). Santoprene™ is a thermoplastic elastomer (TPE that is a mixture of in-situ cross linking of EPDM rubber and polypropylene compounds). Because of the longer life of Santopren™ in both extreme hot and cold environments, it is often preferred over the use of rubber. Pellethane™ 2102-55D is a polyester polycaprolactone polyurethane. Methyl hexanoate and methyl tiglate were sorbed using heat and pressure (60° C., 40 psi, 30 min) into the Santoprene® and were effective in bioassays for cockroach attraction. […] Loading rates of active compounds into the Santoprene®, using slightly elevated temperature (60° C.) and 40 psi pressure, were 8-12% by wt for the two compounds.

Where [5] appears, read: Charcoal absorbent, methylcellulose coated pellet, aged 1 hour in fume hood.
The mark [6] stands for this setting: charcoal controlled release formulation, aged 24 hours in fume hood.
[7] abbreviates: charcoal controlled release formulation, aged 48 hours in fume hood.

For the compound `CCCCOC(C)=O` [Butyl Acetate], in series [1], the “Percent Response” value worked out at 45.0%.

For `CCCCOC(=O)CCC` [Butyl Butanoate], the “Percent Response” value in series [1] was 35.0** %.

On to `CCCCCCC(=O)OCCCC` [Butyl Heptanoate], for which the “Percent Response” value in series [2] (setting [5]) is recorded as 70.0%; in series [2] (setting [6]), 61.6%; in series [2] (setting [7]), 58.3%; in series [1] it was 80.0* %. The “activity in the olfactometer (in words)” value in series [2] is “significantly active”.

As to `CCCCCC(=O)OCCCC` [Butyl Hexanoate], in series [3], the “attraction to treatment harborage versus polymer blank control (in words)” value was “significant attraction and subsequent aggregation”. The “Percent Response” value in series [2] (setting [5]) was 82.0%; in series [2] (setting [6]), 70.0%; in series [2] (setting [7]) it was 61.6%; in series [1], 75.0* %. Moreover, the “activity in the olfactometer (in words)” value in series [2] is “significantly active”. Also, the “Longevity of the release system” value in series [4] (1 gm active in Accurel MP100 in metalized polyethylene sachet with 0.5 mm hole) was found to be 208 days. Besides, the Release rate stood at 4.8 mg/day in series [4] (1 gm active in Accurel MP100 in metalized polyethylene sachet with 0.5 mm hole, FIG. 3); 7 mg/day in series [4] (Saranex system without metalized polyethylene and diffusion control orifice).

Take `CCCCCCCCC(=O)OCCCC` [Butyl Nonanoate]: the “Percent Response” value in series [1] is given as 40.0%.

As to `CCCCCCCC(=O)OCCCC` [Butyl Octanoate], in series [1], the “Percent Response” value was determined as 55.0%.

On to `CCCCOC(=O)CCCC` [Butyl Pentanoate], for which the “Percent Response” value in series [1] is reported as 50.0%.

On to `CCCCOC(=O)CC` [Butyl Propanoate], for which the “Percent Response” value in series [1] is 15.0** %.

Consider `CCCC(=O)OCC` [Ethyl Butyrate], for which the “Percent Response” value in series [1] is 63.3%.

As to `CCCCCCC(=O)OCC` [Ethyl Heptanoate], in series [1], the “Percent Response” value turned out to be 40.0%.

Regarding `CCCCCC(=O)OCC` [Ethyl Hexanoate], the “Percent Response” value in series [1] is recorded as 75.0* %.

`CCCCCCCC(=O)OCC` [Ethyl Octanoate]: the “Percent Response” value in series [1] was found to be 50.0%.

`CCCCC(=O)OCC` [Ethyl Pentanoate]: the “Percent Response” value in series [1] is listed as 65.0* %.

For `CCOC(=O)CC` [Ethyl Propanoate], the “Percent Response” value in series [1] was 65.0* %.

On to `CCCCCCOC(=O)CCC` [Hexyl Butanoate], for which the “Percent Response” value in series [1] was 35.0** %.

Consider `CCCC(=O)OC` [Methyl Butanoate], for which the “Percent Response” value in series [1] came out at 55.0%.

`CCCCCCCCCC(=O)OC` [Methyl Decanoate]: the “Percent Response” value in series [1] is given as 55.0%.

Turning to `CCCCCCCCCCCC(=O)OC` [Methyl Dodecanoate], the “Percent Response” value in series [1] came to 45.0%.

`CCCCCCC(=O)OC` [Methyl Heptanoate]: in series [1], the “Percent Response” value was determined as 50.0%.

For the compound `CCCCCC(=O)OC` [Methyl Hexanoate], the “effect in bioassays for cockroach attraction (in words)” value is listed as “worked less well” with cockroach (loaded into Dow Pellethane) and “effective” in the series with cockroach (sorbed into Santoprene (60° C., 40 psi, 30 min)). Besides, the “Percent Response” value in series [1] was found to be 45.0%.

As to `CCCCCCCCC(=O)OC` [Methyl Nonanoate], in series [1], the “Percent Response” value stood at 45.0%.

Regarding `CCCCC(=O)OC` [Methyl Pentanoate], the “Percent Response” value in series [1] amounted to 50.0%.

Take `CCC(=O)OC` [Methyl Propanoate]: the “Percent Response” value in series [1] came out at 60.0%.

For the compound `CCCCCCCCCCC(=O)OC` [Methyl Undecanoate], in series [1], the “Percent Response” value amounted to 45.0%.

Take `CCCOC(=O)CCC` [Propyl Butanoate]: in series [1], the “Percent Response” value is listed as 35.0** %.

Regarding `CCCOC(C)=O` [Propyl acetate], the “Percent Response” value in series [1] is recorded as 40.0%.
